Laboratory results published in PubChem BioAssay (NCI).
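Results reflect a 48-hour exposure of cells in 96-well plates to compound at five concentrations. At the GI50, growth is halved. Definition used: TGI = concentration required for complete inhibition of growth.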

Key:
Test in all cases: inhibition of tumour cell growth, NCI panel, 48 h
OVCAR-5 ovarian = test system: OVCAR-5 ovarian
MCF7 breast = test system: MCF7 breast
T-47D breast = test system: T-47D breast
HT29 colon = test system: HT29 colon
HOP-62 NSCLC = test system: HOP-62 NSCLC
COLO 205 colon = test system: COLO 205 colon
SR leukemia = test system: SR leukemia
K-562 leukemia = test system: K-562 leukemia
A498 renal = test system: A498 renal
CCRF-CEM leukemia = test system: CCRF-CEM leukemia

SMILES	TGI (OVCAR-5 ovarian) [µM]	TGI (MCF7 breast) [µM]	TGI (T-47D breast) [µM]	TGI (HT29 colon) [µM]	TGI (HOP-62 NSCLC) [µM]	TGI (COLO 205 colon) [µM]	TGI (SR leukemia) [µM]	TGI (K-562 leukemia) [µM]	TGI (A498 renal) [µM]	GI50 (OVCAR-5 ovarian) [µM]	GI50 (MCF7 breast) [µM]	GI50 (HT29 colon) [µM]	GI50 (A498 renal) [µM]	GI50 (HOP-62 NSCLC) [µM]	GI50 (COLO 205 colon) [µM]	GI50 (SR leukemia) [µM]	TGI (CCRF-CEM leukemia) [µM]
NC1CC=C(COC(=O)C(O)(c2ccccc2)C2CC2)CC1 (stereo not drawn)	> 100	> 100	> 100	> 100	> 100	> 100	> 100										
Cc1ccc(N=C2C(=Nc3ccc(C)cc3)N(c3ccc(C)cc3)C(=S)N2C(=O)c2ccccc2)cc1	> 100	> 100	> 100	> 100	> 100	> 100	> 100	> 100									
C=CCC(C(=O)Nc1cccc2[nH]cnc12)C(=O)OCC (stereo not drawn)	> 100	> 100	> 100	> 100	> 100		> 100	> 100	> 100								
O=c1ccc2nc(-c3ccccn3)nn(-c3ccccc3)c-2c1	18.1	4.71		8.85	44.3	5.12	> 100		27.2	4.99	0.783	2.85	14.1	3.76	2.2	2.31	
CCOC(=O)c1c(-c2cccc3ccccc23)c(C#N)c(=S)n(C2OC(COC(C)=O)C(OC(C)=O)C(OC(C)=O)C2OC(C)=O)c1C (stereo not drawn)	> 100	> 100	> 100	> 100	> 100	> 100	> 100	> 100	> 100								> 100
COc1ccc(C[C@H](N)C(=O)N2C[C@@H](CO)C[C@@H](n3ccc(=O)[nH]c3=O)C2)cc1	> 100			> 100	> 100	> 100	> 100	> 100									> 100
O=c1[nH]c(=S)c2cc3c(=S)[nH]c(=O)n(CCO)c3nc2n1CCO	> 100	> 100	> 100		> 100	> 100	> 100	> 100	> 100								> 100
C[N+](C)(CCNC(=O)c1cccc2cc3ccccc3nc12)Cc1ccc([N+](=O)[O-])s1	> 25	> 25	> 25	> 25	> 25	> 25		> 25	> 25								> 25
Cc1ccc(-n2cc([Si](C)(C)C)nn2)s1	> 100	> 100	> 100	> 100		> 100		> 100	> 100								
N#CC(C#N)=C1C(=O)NC(N)=C1C#N	> 100	> 100	> 100	> 100	> 100	> 100		> 100	> 100								> 100
C=C(c1ccccc1)c1ccccc1-c1cc(-c2ccccc2)cc(-c2ccccc2)n1	> 100	> 100	61.3	> 100	> 100		> 100	> 100	> 100								> 100
COc1ccc(C2=NN=C3C(c4ccccc4)=Nc4ccccc4N3C2)cc1	> 100	85		74.3	> 100	70.7	49.5	> 100	> 100								8.24
O=C(O)C(=O)/C=C(\O)c1ccc(Br)cc1	> 100	> 100	> 100	> 100	> 100	> 100		> 100	> 100								> 100
OC(CC(O)(C(F)(F)F)C(F)(F)F)c1ccc(C(O)CC(O)(C(F)(F)F)C(F)(F)F)cc1 (stereo not drawn)	31.1		31.3	25.1	35		40.2	60.7	25.1								36.9
CCC[C@@H]1C(=O)N=C(N)N1C(=O)OCc1ccccc1	> 100	> 100		> 100	> 100	> 100	> 100	> 100	> 100								
COC(=O)C1=C(C(=O)OC)SC2(S1)C(C(=O)OC)=C(C(=O)OC)Sc1c2ssc1=NC(C)(C)C	3.68	3.22		2.57	15.5	3.22	1.91	9.66	3.48								
C=CCn1c(-c2ccc([N+](=O)[O-])cc2)csc1=N	> 100	> 100	> 100	> 100	> 100	> 100		91.5	> 100								34.7
CN1CCN(C2=CC(=O)c3c(O)ccc(O)c3C2=O)CC1		1.18	2.04	0.946	2.16	0.31	8.1	1.72	2.87								3.03
COC(=O)c1c(O)ccc2c1c1c(n2Cc2ccccc2)C(=O)c2ccccc2C1		> 100		37.4	> 100	28.9	37.5	46	> 100								65.8
CCCCNC(=O)/N=C/c1c(O)c2ccccc2oc1=O	> 100			> 100	> 100	> 100	> 100										
CCCC(=O)[O-].N.N.N.N.N.[Co+3].[O-][Cl+3]([O-])([O-])[O-]	> 100			> 100	> 100	> 100		> 100	> 100								> 100
CCOC(=O)[C@@H]1ON2OC(OC3CCCC3(c3ccccc3)c3ccccc3)C(OC(C)=O)[C@H]3OC(=O)[C@@H]1C32 (stereo partly drawn)		50.4	> 100	> 100	> 100	> 100	> 100	> 100	> 100								> 100
C=C(C)CNC(=S)N(N)c1ccc2ccccc2c1	77.4	> 100	> 100	> 100	> 100	> 100	> 100	> 100									> 100
COc1cc(Br)c(CC2C3=C(CCN2C(=O)C2CCC2)CC(=O)CC3)cc1O (stereo not drawn)	> 100		71.8	71.6	> 100	40	> 100	81.3									87.6
